# Assays:
# [1] = system: K-562; conditions: for TGI: K-562 (Leukemia), 48 h, SRB
# [2] = system: MOLT-4; conditions: for TGI: MOLT-4 (Leukemia), 48 h, SRB
# [3] = system: A549/ATCC; conditions: A549/ATCC (Non-Small Cell Lung Cancer), 48 h, SRB
# [4] = system: KM12; conditions: KM12 (Colon Cancer), 48 h, SRB
# [5] = system: U251; conditions: U251 (CNS Cancer), 48 h, SRB
# [6] = system: SK-MEL-28; conditions: SK-MEL-28 (Melanoma), 48 h, SRB
# [7] = system: SR; assay: cells; conditions: Homo sapiens, 48 h; for CC50: read-out: LC50
# [8] = system: HCT-116; assay: cells; conditions: Homo sapiens, HCT-116, 48 h; for CC50: read-out: LC50
# [9] = system: KM12; assay: cells; conditions: Homo sapiens, KM12, 48 h; for CC50: read-out: LC50
# [10] = system: SW-620; assay: cells; conditions: Homo sapiens, SW-620, 48 h; for CC50: read-out: LC50
# [11] = system: U251; assay: cells; conditions: Homo sapiens, U-251, 48 h; for CC50: read-out: LC50
# [12] = system: SN12C; assay: cells; conditions: Homo sapiens, 48 h; for CC50: read-out: LC50
# [13] = system: PC-3; assay: cells; conditions: Homo sapiens, PC-3, 48 h; for CC50: read-out: LC50
# [14] = system: CCRF-CEM; assay: NCI DTP 60 cell line screen, SRB; conditions: 48 h; for TGI: CCRF-CEM (Leukemia), SRB; for GI50 / CC50: Homo sapiens, CCRF-CEM; for CC50: read-out: LC50
# [15] = system: NCI-322M; assay: NCI DTP 60 cell line screen, SRB; conditions: 48 h; for GI50 / CC50: Homo sapiens, NCI-322M; for CC50: read-out: LC50; for TGI: NCI-322M (Non-Small Cell Lung Cancer), SRB
# [16] = system: HCC-2998; assay: NCI DTP 60 cell line screen, SRB
# [17] = system: HCT-15; assay: NCI DTP 60 cell line screen, SRB; conditions: for TGI: HCT-15 (Colon Cancer), 48 h, SRB; for GI50 / CC50: Homo sapiens, HCT-15, 48 h; for CC50: read-out: LC50
# [18] = system: SNB-19; assay: NCI DTP 60 cell line screen, SRB; conditions: for GI50 / CC50: Homo sapiens, SNB-19, 48 h; for CC50: read-out: LC50; for TGI: SNB-19 (CNS Cancer), 48 h, SRB
# [19] = system: UACC-62; assay: NCI DTP 60 cell line screen, SRB; conditions: for GI50 / CC50: Homo sapiens, UACC-62, 48 h; for CC50: read-out: LC50; for TGI: UACC-62 (Melanoma), 48 h, SRB
# [20] = system: IGROV1; assay: NCI DTP 60 cell line screen, SRB; conditions: for GI50 / CC50: Homo sapiens, IGROV-1, 48 h; for CC50: read-out: LC50; for TGI: IGROV1 (Ovarian Cancer), 48 h, SRB
# [21] = system: OVCAR-8; assay: NCI DTP 60 cell line screen, SRB; conditions: for GI50 / CC50: Homo sapiens, OVCAR-8, 48 h; for CC50: read-out: LC50; for TGI: OVCAR-8 (Ovarian Cancer), 48 h, SRB
# [22] = system: CAKI-1; assay: NCI DTP 60 cell line screen, SRB; conditions: for TGI: CAKI-1 (Renal Cancer), 48 h, SRB; for GI50 / CC50: Homo sapiens, CAKI-1, 48 h; for CC50: read-out: LC50
# [23] = system: MCF-7; assay: NCI DTP 60 cell line screen, SRB; conditions: for GI50 / CC50: Homo sapiens, MCF7, 48 h; for CC50: read-out: LC50; for TGI: MCF-7 (Breast Cancer), 48 h, SRB
# [24] = system: MDA-MB-231/ATCC; assay: NCI DTP 60 cell line screen, SRB; conditions: for GI50 / CC50: Homo sapiens, MDA-MB-231, 48 h; for CC50: read-out: LC50; for TGI: MDA-MB-231/ATCC (Breast Cancer), 48 h, SRB
# [25] = system: HS 578T; assay: NCI DTP 60 cell line screen, SRB; conditions: 48 h; for TGI: HS 578T (Breast Cancer), SRB; for GI50 / CC50: Homo sapiens, Hs-578T; for CC50: read-out: LC50
# [26] = system: BT-549; assay: NCI DTP 60 cell line screen, SRB; conditions: for TGI: BT-549 (Breast Cancer), 48 h, SRB; for GI50 / CC50: Homo sapiens, BT-549, 48 h; for CC50: read-out: LC50
# [27] = system: AGS (gastric cancer); assay: MTT cell viability assay; type: cell-based; conditions: Homo sapiens, 24 h
# How it was run: (§1)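 MTT assay on AGS, DLD-1, MCF-7 and MDA-MB-231 cancer cell lines, with growth inhibition reported as GI50.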
# [28] = system: DLD-1 (human colon cancer); assay: MTT cell viability assay; type: cell-based; conditions: DLD-1, MTT, 24 h
# How it was run: as §1
# [29] = system: MCF-7 (breast cancer); assay: MTT cell viability assay; type: cell-based; conditions: Homo sapiens, MCF7; MCF-7, MTT, 24 h
# How it was run: as §1
# [30] = system: HL-60(TB); conditions: HL-60(TB) (Leukemia), 48 h, SRB
smiles,measurement,setting,value
"O=C(O)C(Cc1ccccc1)N1C(=O)/C(=C/C(Cl)=C/c2ccc([N+](=O)[O-])cc2)SC1=S (stereo not drawn) [Compound 2j, 2-{5-[(Z,2Z)-2-Chloro-3-(4-nitrophenyl)-2-propenylidene]-4-oxo-2-thioxothiazolidin-3-yl}-3-phenylpropanoic acid]",TI (Therapeutic Index),[1]; GI50 (normal blood lymphocyte)/GI50 (K-562),16.27
same,TGI,[1],> 100 µM
same,TI (Therapeutic Index),[2]; GI50 (normal blood lymphocyte)/GI50 (MOLT-4),15.59
same,TGI,[2],> 100 µM
same,TGI,[3],> 100 µM
same,TGI,[4],4.35 µM
same,TGI,[5],3.52 µM
same,TGI,[6],4.68 µM
same,GI50,[7],2.45 µM
same,CC50,[7],> 100 µM
same,GI50,[8],2.01 µM
same,CC50,[8],56.7 µM
same,GI50,[9],2.06 µM
same,CC50,[9],9.16 µM
same,GI50,[10],2.1 µM
same,CC50,[10],> 100 µM
same,GI50,[11],1.72 µM
same,CC50,[11],7.21 µM
same,GI50,[12],2.84 µM
same,CC50,[12],> 100 µM
same,GI50,[13],2.53 µM
same,CC50,[13],> 100 µM
same,TGI,[14],> 100 µM
same,GI50,[14],2.92 µM
same,CC50,[14],> 100 µM
same,GI50,[15],> 100 µM
same,CC50,[15],> 100 µM
same,TGI,[15],>100/>100/>100 μM
same,TGI,"[16]; HCC-2998 (Colon Cancer), 48 h, SRB",3.50 µM
same,GI50,"[16]; Homo sapiens, HCC 2998, 48 h",1.96 µM
same,CC50,"[16]; Homo sapiens, HCC 2998, 48 h, read-out: LC50",6.27 µM
same,TGI,[17],4.58 µM
same,GI50,[17],1.92 µM
same,CC50,[17],> 100 µM
same,GI50,[18],1.85 µM
same,CC50,[18],> 100 µM
same,TGI,[18],> 100 µM
same,GI50,[19],2 µM
same,CC50,[19],30.2 µM
same,TGI,[19],4.85 µM
same,GI50,[20],2.99 µM
same,CC50,[20],> 100 µM
same,TGI,[20],> 100 µM
same,GI50,[21],3.13 µM
same,CC50,[21],> 100 µM
same,TGI,[21],> 100 µM
same,TGI,[22],5.09 µM
same,GI50,[22],2.28 µM
same,CC50,[22],16.7 µM
same,GI50,[23],2.38 µM
same,CC50,[23],> 100 µM
same,TGI,[23],10.7 µM
same,GI50,[24],3.35 µM
same,CC50,[24],> 100 µM
same,TGI,[24],> 100 µM
same,TGI,[25],> 100 µM
same,GI50,[25],4.37 µM
same,CC50,[25],> 100 µM
same,TGI,[26],4.17 µM
same,GI50,[26],1.79 µM
same,CC50,[26],> 100 µM
"O=C1/C(=C/C(Cl)=C/c2ccc([N+](=O)[O-])cc2)SC(=S)N1/N=C\C(Cl)=C\c1ccc([N+](=O)[O-])cc1 [Compound 2c, 5-[(Z,2Z)-2-Chloro-3-(4-nitrophenyl)-2-propenylidene]-3-[(Z,2Z)-2-chloro-3-(4-nitrophenyl)-2-propenylideneamino]-2-thioxo-4-thiazolidinone]",GI50,[27],4.43 µM
same,GI50,[28],6.34 µM
same,GI50,[29],3.6 µM
same,TGI,[30],23.3 µM
same,TGI,[1],25.5 µM
same,TGI,[2],8.95 µM
same,TGI,[3],42.6 µM
same,TGI,[4],59.1 µM
same,TGI,[5],24.5 µM
same,GI50,[7],3.67 µM
same,CC50,[7],> 100 µM
same,GI50,[8],2.73 µM
same,CC50,[8],23.3 µM
same,GI50,[9],20.6 µM
same,CC50,[9],> 100 µM
same,GI50,[10],7.24 µM
same,CC50,[10],> 100 µM
same,GI50,[11],8.03 µM
same,CC50,[11],65.8 µM
same,GI50,[12],29 µM
same,CC50,[12],> 100 µM
same,GI50,[13],8.1 µM
same,CC50,[13],> 100 µM
same,TGI,[14],35.3 µM
same,GI50,[14],4.42 µM
same,CC50,[14],> 100 µM
same,GI50,[15],87.6 µM
same,CC50,[15],> 100 µM
same,TGI,[15],> 100 µM
same,TGI,[17],33.0 µM
same,GI50,[17],16.6 µM
same,CC50,[17],65.7 µM
same,GI50,[18],48.3 µM
same,CC50,[18],> 100 µM
same,TGI,[18],> 100 µM
same,GI50,[19],13.6 µM
same,CC50,[19],58 µM
same,TGI,[19],28.1 µM
same,GI50,[20],13.3 µM
same,CC50,[20],58.9 µM
same,TGI,[20],28.0 µM
same,GI50,[21],1.98 µM
same,CC50,[21],8.38 µM
same,TGI,[21],4.08 µM
same,TGI,[22],11.2 µM
same,GI50,[22],3.11 µM
same,CC50,[22],> 100 µM
same,GI50,[23],4.08 µM
same,CC50,[23],83.7 µM
same,TGI,[23],19.8 µM
same,GI50,[24],10 µM
same,CC50,[24],> 100 µM
same,TGI,[24],35.4 µM
same,TGI,[25],> 100 µM
same,GI50,[25],29.5 µM
same,CC50,[25],> 100 µM
same,TGI,[26],76.0 µM
same,GI50,[26],27.3 µM
same,CC50,[26],> 100 µM
